Experimental findings from patent US20020183309A1, “Novel amines as histamine-3 receptor ligands and their therapeutic applications” (priority 2001, published 2002) are described below.

T1 sequence (Q9QYN8 whole entry): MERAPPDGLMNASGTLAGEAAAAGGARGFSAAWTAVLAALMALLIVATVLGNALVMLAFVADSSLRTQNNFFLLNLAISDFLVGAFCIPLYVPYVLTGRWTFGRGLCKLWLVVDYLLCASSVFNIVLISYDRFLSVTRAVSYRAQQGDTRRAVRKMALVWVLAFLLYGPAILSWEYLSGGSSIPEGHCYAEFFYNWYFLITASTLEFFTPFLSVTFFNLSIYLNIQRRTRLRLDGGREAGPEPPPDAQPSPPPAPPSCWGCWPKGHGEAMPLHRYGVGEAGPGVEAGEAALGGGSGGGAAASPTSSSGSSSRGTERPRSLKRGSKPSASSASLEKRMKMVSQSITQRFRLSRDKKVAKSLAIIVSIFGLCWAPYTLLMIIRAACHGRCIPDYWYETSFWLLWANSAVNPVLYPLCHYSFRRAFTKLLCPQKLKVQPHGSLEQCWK

The first assay has as its target T1, histamine-3 receptors (H3 receptor) (Rattus norvegicus, UniProt Q9QYN8).
T1 construct: from tissue; host or cells: male Sprague-Dawley rat brain cortex membranes
Put plainly: (3H)-N-α-methylhistamine binding to rat cortical membranes.
Conditions: not given
The protocol: Briefly, male Sprague-Dawley rat brain cortices were homogenized (1 g tissue/10 mL buffer) in 50 mM Tris-HCl/5 mM EDTA containing protease inhibitor cocktail (Calbiochem) using a polytron set at 20,500 rpm. Homogenates were centrifuged for 20 minutes at 40,000×g. The supernatant was decanted, and pellets were weighed. The pellet was resuspended by polytron homogenization in 40 mL 50 mM Tris-HCl/5 mM EDTA with protease inhibitors and centrifuged for 20 minutes at 40,000×g. […] Rat cortical membranes (12 mg wet weight/tube) were incubated with (^3H)-N-α-methylhistamine (˜0.6 nM) with or without H3 receptor antagonists in a total incubation volume of 0.5 mL of 50 mM Tris-HCl/5 mM EDTA (pH 7.7). Test compounds were dissolved in DMSO to provide a 20 mM solution, serially diluted and then added to the incubation mixtures prior to initiating the incubation assay by addition of the membranes. Thioperamide (3 μM) was used to determine nonspecific binding. Binding incubations were conducted for 30 minutes at 25° C. and terminated by addition of 2 mL of ice cold 50 mM Tris-HCl (pH 7.7) and filtration through 0.3% polyethylenimine-soaked Unifilter plates (Packard). These filters were washed 4 additional times with 2 mL of ice-cold 50 mM Tris-HCl and dried for 1 hour. Radioactivity was determined using liquid scintillation counting techniques. Results were analyzed by Hill transformation and Ki values were determined using the Cheng-Prusoff equation.
`CN(C)[C@@H]1CCN(CCc2cc3cc(-c4ccc(C#N)cc4)ccc3o2)C1` [Example 66, 4-(2-{2-[(3R)-3-(dimethylamino)pyrrolidinyl]ethyl}-1-benzofuran-5-yl)benzonitrile]: the inhibition constant (Ki) turned out to be 90.4 nM.

`CN(C)[C@H]1CCN(CCc2cc3cc(-c4ccc(C#N)cc4)ccc3o2)C1` [Example 9, 4-(2-{2-[(3S)-3-(dimethylamino)pyrrolidinyl]ethyl}-1-benzofuran-5-yl)benzonitrile] had a Ki of 136 nM.

The same assay, now with this note: male Sprague-Dawley rat brain cortical membranes; (3H)-N-α-methylhistamine ~0.6 nM; 30 minutes at 25° C.; Cheng-Prusoff equation; read-out: Ki.
As for `CN(CCc1cc2cc(-c3ccc(C(=O)N4CCOCC4)cc3)ccc2o1)C(C)(C)C` [Example 35, N-(tert-butyl)-N-methyl-N-(2-{5-[4-(4-morpholinylcarbonyl)phenyl]-1-benzofuran-2-yl}ethyl)amine], the inhibitory constant (Ki) turned out to be 67.9 nM.

For `CCN(CCc1cc2cc(-c3ccc(C(=O)N4CCOCC4)cn3)ccc2o1)C(C)C` [Example 57, N-ethyl-N-isopropyl-N-(2-{5-[5-(4-morpholinylcarbonyl)-2-pyridinyl]-1-benzofuran-2-yl}ethyl)amine], the Ki was 115 nM.

Consider `O=C(c1ccc(-c2ccc3oc(CCN4CC5CC4CO5)cc3c2)nc1)N1CCOCC1` (centres unmarked) [Example 61, 5-(2-{5-[5-(4-morpholinylcarbonyl)-2-pyridinyl]-1-benzofuran-2-yl}ethyl)-2-oxa-5-azabicyclo[2.2.1]heptane], for which the Ki amounted to 143 nM.

Regarding `CC(C)CN(C)CCc1cc2cc(-c3ccc(C(=O)N4CCOCC4)cn3)ccc2o1` [Example 55, N-isobutyl-N-methyl-N-(2-{5-[5-(4-morpholinylcarbonyl)-2-pyridinyl]-1-benzofuran-2yl}ethyl)amine], the Ki worked out at 575 nM.

Take `CC1CCCN1CCc1cc2cc(-c3ccc(C(=O)N4CCOCC4)cc3)ccc2o1` (centres unmarked) [Example 23, 4-(4-{2-[2-(2-methyl-1-pyrrolidinyl)ethyl]-1-benzofuran-5-yl}benzoyl)morpholine]: the Ki is 1.97 nM.

On to `CC1CCN(CCc2cc3cc(-c4ccc(C#N)cc4)ccc3o2)CC1` [Example 14, 4-{2-[2-(4-methyl-1-piperidinyl)ethyl]-1-benzofuran-5-yl}benzonitrile], for which the inhibition constant (Ki) came out at 25.1 nM.

`CC(C)CN(C)CCc1cc2cc(-c3ccc(C#N)cc3)ccc2o1` [Example 20, 4-(2-{2-[isobutyl(methyl)amino]ethyl}-1-benzofuran-5-yl)benzonitrile]: the inhibitory constant (Ki) came to 180 nM.

`O=C(c1ccc(-c2ccc3oc(CCN4CCOCC4)cc3c2)nc1)N1CCOCC1` [Example 53, 4-[(6-{2-[2-(4-morpholinyl)ethyl]-1-benzofuran-5-yl}-3-pyridinyl)carbonyl]morpholine]: the Ki stood at 242 nM.

Regarding `C=CCNCCc1cc2cc(-c3ccc(C(=O)N4CCOCC4)cn3)ccc2o1` [Example 63, N-allyl-N-(2-{5-[5-(4-morpholinylcarbonyl)-2-pyridinyl]-1-benzofuran-2-yl}ethyl)amine], the Ki is 1000 nM.

With `CC(C)CN(C)CCc1cc2cc(-c3ccc(C(=O)N4CCOCC4)cc3)ccc2o1` [Example 37, N-isobutyl-N-methyl-N-(2-{5-[4-(4-morpholinylcarbonyl)phenyl]-1-benzofuran-2-yl}ethyl)amine], the Ki was 248 nM.

Take `Cc1c(CCN2CCCCC2)c(=O)oc2ccc(-c3ccc(C#N)cc3)cc12` [Example 42, 4-{4-methyl-2-oxo-3-[2-(1-piperidinyl)ethyl]-2H-chromen-6-yl}benzonitrile]: the inhibition constant (Ki) worked out at 41.8 nM.

Regarding `CCN(CCc1cc2cc(-c3ccc(C(=O)N4CCOCC4)cc3)ccc2o1)C(C)C` [Example 38, N-ethyl-N-isopropyl-N-(2-{5-[4-(4-morpholinylcarbonyl)phenyl]-1-benzofuran-2-yl}ethyl)amine], the Ki turned out to be 26 nM.

For the compound `CCCN(CC)CCc1cc2cc(-c3ccc(C(=O)N4CCOCC4)cc3)ccc2o1` [Example 40, N-ethyl-N-(2-{5-[4-(4-morpholinylcarbonyl)phenyl]-1-benzofuran-2-yl}ethyl)-N-propylamine], the inhibition constant Ki stood at 32.2 nM.

Take `CC(C)N(C)CCc1cc2cc(-c3ccc(C(=O)N4CCOCC4)cc3)ccc2o1` [Example 36, N-isopropyl-N-methyl-N-(2-{5-[4-(4-morpholinylcarbonyl)phenyl]-1-benzofuran-2-yl}ethyl)amine]: the Ki was determined as 52.1 nM.

On to `C[C@@H]1CC[C@@H](C)N1CCc1cc2cc(-c3ccc(C(=O)N4CCOCC4)cn3)ccc2o1` [Example 49, 4-{[6-(2-{2-[(2R,5R)-2,5-dimethylpyrrolidinyl]ethyl}-1-benzofuran-5-yl)-3-pyridinyl]carbonyl}morpholine], for which the Ki came to 14.4 nM.

Consider `CSc1ccc(C(=O)c2ccc3oc(CCN4CCC[C@H]4C)cc3c2)cc1` [Example 78, (2-{2-[(2R)-2-methyl-1-pyrrolidinyl]ethyl}-1-benzofuran-5-yl)[4-(methylthio)phenyl]methanone], for which the inhibition constant Ki was 8.2 nM.

Consider `N#Cc1ccc(-c2ccc3oc(CCN4CC=CCC4)cc3c2)cc1` [Example 16, 4-{2-[2-(3,6-dihydro-1(2H)-pyridinyl)ethyl]-1-benzofuran-5-yl}benzonitrile], for which the Ki turned out to be 92.2 nM.

With `COc1ccccc1C(=O)c1ccc2oc(CCN3CCC[C@H]3C)cc2c1` [Example 82, (2-methoxyphenyl)(2-{2-[(2R)-2-methyl-1-pyrrolidinyl]ethyl}-1-benzofuran-5-yl)methanone], the inhibition constant (Ki) was 1.6 nM.

Consider `COC(=O)[C@@H]1CCCN1CCc1cc2cc(-c3ccc(C#N)cc3)ccc2o1` [Example 15, 4-(2-{2-[2-pyrrolidinemethyl carboxylate]ethyl}-1-benzofuran-5-yl)benzonitrile], for which the inhibition constant Ki came out at 1000 nM.

As for `O=C(c1ccc(-c2ccc3oc(CCN4CCCC4)cc3c2)nc1)N1CCOCC1` [Example 44, 4-[(6-{2-[2-(1-pyrrolidinyl)ethyl]-1-benzofuran-5-yl}-3-pyridinyl)carbonyl]morpholine], the inhibition constant (Ki) amounted to 17.2 nM.

Regarding `CCCNCCc1cc2cc(-c3ccc(C(=O)N4CCOCC4)cn3)ccc2o1` [Example 65, N-(2-{5-[5-(4-morpholinylcarbonyl)-2-pyridinyl]-1-benzofuran-2-yl}ethyl)-N-propylamine], the inhibition constant (Ki) was found to be 596 nM.

With `Cc1c(CCN2CCCC2)c(=O)oc2ccc(-c3ccc(C#N)cc3)cc12` [Example 41, 4-{4-methyl-2-oxo-3-[2-(1-pyrolidinyl)ethyl]-2H-chromen-6-yl}benzonitrile], the inhibition constant (Ki) is 51.5 nM.

Regarding `CN(C)CCc1cc2cc(-c3ccc(C(=O)N4CCOCC4)cn3)ccc2o1` [Example 58, N,N-dimethyl-N-(2-{5-[5-(4-morpholinylcarbonyl)-2-pyridinyl]-1-benzofuran-2-yl}ethyl)amine], the Ki stood at 133 nM.

With `COc1ccc(C(=O)c2ccc3oc(CCN4CCC[C@H]4C)cc3c2)cc1` [Example 73, (4-methoxyphenyl)(2-{2-[(2R)-2-methyl-1-pyrrolidinyl]ethyl}-1-benzofuran-5-yl)methanone], the Ki is 2.9 nM.

`CN(CCc1cc2cc(-c3ccc(C(=O)N4CCOCC4)cn3)ccc2o1)C(C)(C)C` [Example 54, N-(tert-butyl)-N-methyl-N-(2-{5-[5-(4-morpholinylcarbonyl)-2-pyridinyl]-1-benzofuran-2-yl}ethyl)amine]: the inhibition constant (Ki) came out at 197 nM.

Turning to `O=C(c1ccc(-c2ccc3oc(CCN4CCC5(CC4)OCCO5)cc3c2)nc1)N1CCOCC1` [Example 60, 8-(2-{5-[5-(4-morpholinylcarbonyl)-2-pyridinyl]-1-benzofuran-2-yl}ethyl)-1,4-dioxa-8-azaspiro[4.5]decane], the Ki is 1000 nM.

In the case of `O=C(c1ccc(-c2ccc3oc(CCNCCCO)cc3c2)nc1)N1CCOCC1` [Example 64, 3-[(2-{5-[5-(4-morpholinylcarbonyl)-2-pyridinyl]-1-benzofuran-2-yl}ethyl)amino]-1-propanol], the Ki was determined as 1000 nM.

As to `O=C(c1ccc(-c2ccc3oc(CCN4CC=CCC4)cc3c2)cc1)N1CCOCC1` [Example 33, 4-(4-{2-[2-(3,6-dihydro-1(2H)-pyridinyl)ethyl]-1-benzofuran-5-yl}benzoyl)morpholine], the Ki turned out to be 32.3 nM.

Consider `C[C@@H]1CCCN1CCc1cc2cc(C(=O)c3cccc(Cl)c3)ccc2o1` [Example 71, (3-chlorophenyl)(2-{2-[(2R)-2-methyl-1-pyrrolidinyl]ethyl}-1-benzofuran-5-yl)methanone], for which the Ki is 2 nM.

Regarding `O=C(c1ccc(-c2ccc3oc(CCN4CCCCC4)cc3c2)cc1)N1CCOCC1` [Example 24, 4-(4-{2-[2-(1-piperidinyl)ethyl]-1-benzofuran-5-yl}benzoyl)morpholine], the Ki came to 11.7 nM.

For `CCN(CCc1cc2cc(-c3ccc(C#N)cc3)ccc2o1)C(C)C` [Example 21, 4-(2-{2-[ethyl(isopropyl)amino]ethyl}-1-benzofuran-5-yl)benzonitrile], the inhibition constant Ki came to 44.4 nM.

Turning to `CCC(CC)CC(=O)c1ccc2oc(CCN3CCC[C@H]3C)cc2c1` [Example 76, 3-ethyl-1-(2-{2-[(2R)-2-methyl-1-pyrrolidinyl]ethyl}-1-benzofuran-5-yl)-1-pentanone], the Ki is 4 nM.

As to `O=C(c1ccc(-c2ccc3oc(CCN4CCCCCC4)cc3c2)nc1)N1CCOCC1` [Example 51, 4-{[6-(2-{2-[1-azepanyl]ethyl}-1-benzofuran-5-yl)-3-pyridinyl]carbonyl}morpholine], the Ki came out at 3.07 nM.

One may read the Ki as the equilibrium dissociation constant of an inhibitor or competing ligand from its target.
